# Measured values as given in paper PMC7875120 (Bioorganic & medicinal chemistry, 2020).
# Where a name gives a salt, the structure may show the parent alone.
# Key:
# [1] = tested on: U251 cancer cells; experiment: U251 cytotoxicity assay; format: cell-based, human; conditions: versus compound 5
# [2] = tested on: HeLa cells; experiment: Antiproliferative activity in parental HeLa cells; format: cell-based; conditions: Homo sapiens, read-out: IC50 ± SD HeLa
# [3] = tested on: U251 human glioma cells implanted into nude mice; experiment: U251 flank xenograft study; format: in vivo; conditions: 17.5 mg/kg twice week
# [4] = tested on: cellular microtubules in A-10 cells; experiment: Microtubule depolymerizing effects, cell-based phenotypic screen; conditions: for microtubule depolymerizing activity: at 10000 nM, A-10 cells
# [5] = tested on: NCI 60 cancer cell lines; experiment: NCI 60 cell line panel; format: cell-based; conditions: values in Table S2, not available
# [6] = Maximal tolerated dose, dose escalation study; format: in vivo; conditions: nude mice, escalation until >5% weight loss
# [7] = tested on: MDA-MB-435 cancer cells; conditions: earlier report; cited from earlier work
# [8] = tested on: SK-OV-3 cells; experiment: Antiproliferative activity in parental SK-OV-3 cells; format: cell-based; conditions: Homo sapiens, SK-OV-3, read-out: IC50 ± SD SK-OV-3
structure (smiles),measurement,setting,value
"COc1cccc2cc(N(C)c3ncnc4c3CCC4)ccc12 [Compound 9, N-(5’-methoxynaphthyl-2’)-N-methyl-cyclopenta[d]pyrimidin-4-amine hydrochloric salt]",fold less potent/active than 5 in the U251 cytotoxicity assay,[1],4 fold
"COc1ccc(/C=C\c2cc(OC)c(OC)c(OC)c2)cc1O [CA-4, Combretastatin A-4]",IC50,[2],4.7 ± 0.2 nM
"COc1cccc2cc(N(C)c3nc(C)nc4c3CCC4)ccc12 [Compound 5, N-(5’-methoxynaphthyl-2’)-N,2-dimethyl-cyclopenta[d]pyrimidin-4-amine hydrochloric acid salt]",toxicity as measured by animal weight,[3]; U251 xenograft mice,without significant toxicity
same,tumor growth (tumor volume) in U251 xenograft,[3]; started 7 days after implantation,inhibited tumor growth as compared with the carrier or temozolomide
same,fold more potent than CA-4 in microtubule depolymerizing activity,[4]; versus CA-4,about 3 fold
same,GI50s in the NCI 60 cell line panel,[5],potent GI50s against most of the NCI 60 cancer cell lines
same,Maximal tolerated dose (MTD),[6],17.5 mg/kg/2x wk
COc1ccc(Nc2nc(C)nc3c2CC(C)C3)cc1 (stereo not drawn) [Compound 2],antiproliferative and microtubule depolymerizing activity,[7],almost inactive
"Cn1nnc2c(C(N)=O)ncn2c1=O [temozolomide, reference compound]",Maximal tolerated dose (MTD),[6],50 mg/kg/wk
"COc1ccc(N(C)c2nc(C)nc3c2CCC3)cc1 [Compound 3, 2,4-dimethyl-4-(4′-methoxy)phenyl cyclopenta[d]pyrimidine]",IC50,[2],12 ± 1.2 nM
same,IC50,[8],11.3 ± 0.2 nM
"COc1ccc2c(N(C)c3ncnc4c3CCC4)cccc2c1 [Compound 8, N-(6’-methoxynaphthyl-1’)-N-methyl-cyclopenta[d]pyrimidin-4-amine]",microtubule depolymerizing activity,[4],no microtubule depolymerizing activity
same,fold less potent/active than 5 in the U251 cytotoxicity assay,[1],7 fold
"COc1cccc2c(N(C)c3nc(C)nc4c3CCC4)cccc12 [Compound 7, N-(5’-methoxynaphthyl-1’)-N,2-dimethyl-cyclopenta[d]pyrimidin-4-amine hydrochloric acid salt]",fold less potent/active than 5 in the U251 cytotoxicity assay,[1],2 fold
"COc1ccc(N(C)c2nc(C)nc3c2CCC3)c2ccccc12 [Compound 6, N-(4’-methoxynaphthyl-1’)-N,2-dimethyl-cyclopenta[d]pyrimidin-4-amine]",fold less potent than 5 for microtubule depolymerizing activity,[4]; versus compound 5,more than 100 fold
same,fold less potent/active than 5 in the U251 cytotoxicity assay,[1],2 fold
"COc1ccc2c(N(C)c3nc(C)nc4c3CCC4)cccc2c1 [Compound 4, N-(6’-methoxynaphthyl-1’)-N,2-dimethyl-cyclopenta[d]pyrimidin-4-amine hydrochloric acid salt]",microtubule depolymerizing activity,[4],no microtubule depolymerizing activity
same,fold less potent/active than 5 in the U251 cytotoxicity assay,[1],5 fold
